pEC50, pIC50, pKd: −log10 of the molar value. ≈ marks a conversion by molar mass, not a printed value.
How the values were obtained:
[1] = target: T1, Discoidin domain-containing receptor 2 (Homo sapiens, UniProt Q16832); test: Inhibition of DDR2 (unknown origin) by ADP-Glo assay
T1 sequence (Q16832 whole entry): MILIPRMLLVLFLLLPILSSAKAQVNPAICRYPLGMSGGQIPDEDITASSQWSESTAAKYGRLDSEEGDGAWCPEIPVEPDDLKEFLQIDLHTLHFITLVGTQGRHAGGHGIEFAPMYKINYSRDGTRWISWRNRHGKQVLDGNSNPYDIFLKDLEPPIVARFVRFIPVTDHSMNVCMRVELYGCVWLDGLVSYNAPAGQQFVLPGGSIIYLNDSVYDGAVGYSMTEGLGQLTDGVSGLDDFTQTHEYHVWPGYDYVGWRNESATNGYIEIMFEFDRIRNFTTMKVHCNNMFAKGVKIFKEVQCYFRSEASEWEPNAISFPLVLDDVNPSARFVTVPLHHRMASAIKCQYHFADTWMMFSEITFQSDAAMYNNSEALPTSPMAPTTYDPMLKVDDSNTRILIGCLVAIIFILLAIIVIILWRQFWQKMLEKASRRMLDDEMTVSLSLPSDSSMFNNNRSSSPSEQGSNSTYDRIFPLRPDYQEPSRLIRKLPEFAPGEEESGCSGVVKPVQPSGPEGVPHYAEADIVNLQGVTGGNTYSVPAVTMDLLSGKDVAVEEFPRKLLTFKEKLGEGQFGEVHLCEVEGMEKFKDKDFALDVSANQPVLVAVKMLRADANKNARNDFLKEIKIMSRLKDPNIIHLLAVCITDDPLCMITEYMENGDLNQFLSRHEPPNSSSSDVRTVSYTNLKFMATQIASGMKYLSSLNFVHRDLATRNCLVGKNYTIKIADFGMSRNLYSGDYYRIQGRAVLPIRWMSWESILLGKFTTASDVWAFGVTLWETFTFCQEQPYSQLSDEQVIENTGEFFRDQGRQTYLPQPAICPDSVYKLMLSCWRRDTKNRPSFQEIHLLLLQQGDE

U2OS = test: Antiproliferative activity against human U2OS cells […] assessed as reduction in cell viability incubated for 24 hrs by MTT assay; assay type: functional, cell-based
[2] = target: T2, Epithelial discoidin domain-containing receptor 1 (Homo sapiens, UniProt Q08345); test: Inhibition of DDR1 (unknown origin) using Fluorescein-Poly GAT as substrate by TR-FRET analysis
T2 sequence (Q08345 whole entry, the tested form may be a part): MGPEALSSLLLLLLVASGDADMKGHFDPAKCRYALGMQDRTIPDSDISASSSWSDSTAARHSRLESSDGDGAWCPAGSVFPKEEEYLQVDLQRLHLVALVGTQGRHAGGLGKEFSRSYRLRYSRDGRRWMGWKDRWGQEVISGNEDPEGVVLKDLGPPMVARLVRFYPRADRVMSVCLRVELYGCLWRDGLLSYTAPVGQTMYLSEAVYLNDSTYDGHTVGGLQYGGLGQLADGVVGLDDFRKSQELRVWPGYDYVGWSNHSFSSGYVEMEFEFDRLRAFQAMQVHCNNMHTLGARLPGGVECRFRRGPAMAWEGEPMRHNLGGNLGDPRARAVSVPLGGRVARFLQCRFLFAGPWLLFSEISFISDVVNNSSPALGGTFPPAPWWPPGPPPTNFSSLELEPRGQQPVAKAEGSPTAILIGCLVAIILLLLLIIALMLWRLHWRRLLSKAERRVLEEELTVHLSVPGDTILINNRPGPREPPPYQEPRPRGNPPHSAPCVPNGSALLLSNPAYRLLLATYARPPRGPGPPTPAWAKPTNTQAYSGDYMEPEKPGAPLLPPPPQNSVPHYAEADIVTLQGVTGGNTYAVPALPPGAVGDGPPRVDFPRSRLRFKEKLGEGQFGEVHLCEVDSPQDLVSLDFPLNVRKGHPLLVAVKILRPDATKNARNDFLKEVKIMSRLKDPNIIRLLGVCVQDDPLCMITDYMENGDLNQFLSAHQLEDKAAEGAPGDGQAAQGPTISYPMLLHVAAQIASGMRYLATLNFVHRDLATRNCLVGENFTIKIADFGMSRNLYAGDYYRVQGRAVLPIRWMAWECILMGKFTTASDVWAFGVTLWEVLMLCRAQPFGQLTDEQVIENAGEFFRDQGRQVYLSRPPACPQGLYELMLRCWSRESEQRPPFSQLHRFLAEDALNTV

[3] = target: T1, Discoidin domain-containing receptor 2; test: Inhibition of DDR2 (unknown origin) using Fluorescein-Poly GAT as substrate by TR-FRET analysis
[4] = target: T1, Discoidin domain-containing receptor 2; test: Inhibition of flag-tagged DDR2 (unknown origin) by TR-FRET assay
[5] = target: Proto-oncogene tyrosine-protein kinase receptor Ret (Homo sapiens) (UniProt P07949); test: Inhibition of RET (unknown origin) at 100 uM using Poly(4:1 Glu, Tyr) as substrate in presence of ATP by absorbance based analysis relative to control
Sequence of Proto-oncogene tyrosine-protein kinase receptor Ret (Homo sapiens) (P07949 whole entry): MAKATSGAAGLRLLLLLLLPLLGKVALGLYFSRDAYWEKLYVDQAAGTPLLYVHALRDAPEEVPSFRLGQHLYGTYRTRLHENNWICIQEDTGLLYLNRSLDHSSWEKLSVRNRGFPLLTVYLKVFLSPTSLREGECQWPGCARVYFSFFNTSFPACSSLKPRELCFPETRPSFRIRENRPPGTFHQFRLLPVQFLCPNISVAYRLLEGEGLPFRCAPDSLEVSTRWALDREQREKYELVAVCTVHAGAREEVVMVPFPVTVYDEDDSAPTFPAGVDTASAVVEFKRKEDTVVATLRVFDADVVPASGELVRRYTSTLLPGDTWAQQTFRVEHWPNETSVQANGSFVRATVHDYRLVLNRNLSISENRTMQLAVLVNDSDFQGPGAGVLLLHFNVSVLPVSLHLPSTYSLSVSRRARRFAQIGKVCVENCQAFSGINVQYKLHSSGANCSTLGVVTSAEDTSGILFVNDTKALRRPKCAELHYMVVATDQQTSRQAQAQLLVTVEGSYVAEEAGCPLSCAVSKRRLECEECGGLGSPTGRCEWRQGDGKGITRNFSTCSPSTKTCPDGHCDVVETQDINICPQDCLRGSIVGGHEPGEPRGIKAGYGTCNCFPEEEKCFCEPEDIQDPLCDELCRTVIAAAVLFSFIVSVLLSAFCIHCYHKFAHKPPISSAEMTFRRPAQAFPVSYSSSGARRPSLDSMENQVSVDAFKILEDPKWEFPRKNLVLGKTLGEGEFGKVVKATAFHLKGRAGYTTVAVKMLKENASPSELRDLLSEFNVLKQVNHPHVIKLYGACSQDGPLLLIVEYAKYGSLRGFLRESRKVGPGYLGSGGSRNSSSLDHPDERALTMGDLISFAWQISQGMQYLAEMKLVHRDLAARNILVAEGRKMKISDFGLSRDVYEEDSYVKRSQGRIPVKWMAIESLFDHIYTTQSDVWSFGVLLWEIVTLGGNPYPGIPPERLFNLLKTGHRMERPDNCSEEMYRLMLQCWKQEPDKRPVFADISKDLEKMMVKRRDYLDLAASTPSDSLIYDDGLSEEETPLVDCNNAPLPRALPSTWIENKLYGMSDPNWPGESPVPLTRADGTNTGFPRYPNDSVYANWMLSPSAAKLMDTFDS

[6] = target: Receptor-type tyrosine-protein kinase FLT3 (Homo sapiens) (UniProt P36888); test: Inhibition of FLT3 (unknown origin) at 100 nM relative to control
Sequence of Receptor-type tyrosine-protein kinase FLT3 (Homo sapiens) (P36888 whole entry, the tested form may be a part): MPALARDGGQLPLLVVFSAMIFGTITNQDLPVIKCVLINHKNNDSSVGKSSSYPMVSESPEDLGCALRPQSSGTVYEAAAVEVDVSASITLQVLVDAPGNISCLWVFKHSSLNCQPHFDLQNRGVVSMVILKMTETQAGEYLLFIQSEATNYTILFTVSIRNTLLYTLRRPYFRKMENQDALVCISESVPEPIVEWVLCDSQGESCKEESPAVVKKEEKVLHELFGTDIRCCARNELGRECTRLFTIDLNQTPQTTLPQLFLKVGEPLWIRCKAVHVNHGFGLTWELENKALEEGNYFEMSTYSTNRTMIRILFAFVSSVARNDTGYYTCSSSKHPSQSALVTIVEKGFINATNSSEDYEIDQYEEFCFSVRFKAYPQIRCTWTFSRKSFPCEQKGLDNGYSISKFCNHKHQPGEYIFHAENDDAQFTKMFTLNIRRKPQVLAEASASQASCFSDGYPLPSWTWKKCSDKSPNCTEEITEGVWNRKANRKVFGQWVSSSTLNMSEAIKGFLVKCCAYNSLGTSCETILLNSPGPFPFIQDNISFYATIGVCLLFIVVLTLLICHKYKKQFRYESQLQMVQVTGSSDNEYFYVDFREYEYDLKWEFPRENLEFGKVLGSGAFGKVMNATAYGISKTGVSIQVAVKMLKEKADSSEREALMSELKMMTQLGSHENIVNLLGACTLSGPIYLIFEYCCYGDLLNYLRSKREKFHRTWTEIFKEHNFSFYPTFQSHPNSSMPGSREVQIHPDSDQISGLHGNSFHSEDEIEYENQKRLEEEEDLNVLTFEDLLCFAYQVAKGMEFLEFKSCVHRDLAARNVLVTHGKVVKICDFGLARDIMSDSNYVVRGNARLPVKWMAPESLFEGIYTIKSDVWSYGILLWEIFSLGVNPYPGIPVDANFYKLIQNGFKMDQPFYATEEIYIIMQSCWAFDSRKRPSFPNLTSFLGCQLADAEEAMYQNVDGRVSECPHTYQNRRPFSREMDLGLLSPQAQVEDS

[7] = target: T2, Epithelial discoidin domain-containing receptor 1; test: Inhibition of GST-tagged recombinant DDR1 (unknown origin) expressed in Escherichia coli BL21 by DiscoverX KINOMEscan assay
[8] = target: T1, Discoidin domain-containing receptor 2; test: Inhibition of GST-tagged recombinant DDR2 (unknown origin) expressed in Escherichia coli BL21 by DiscoverX KINOMEscan assay
[9] = Clearance in human liver microsomes measured upto […] by HPLC-MS/MS analysis; assay type: ADME, Microsome
[10] = Aqueous solubility of compound in phosphate buffer at pH 6.5; assay type: physicochemical
[11] = Clearance in C57BL/6 mouse at 1 mg/kg, iv measured upto 8 hrs by HPLC analysis; assay type: ADME, organism-based; conditions: in vivo
[12] = target: T2, Epithelial discoidin domain-containing receptor 1; test: Inhibition of DDR1 (unknown origin)
[13] = target: Vascular endothelial growth factor receptor 2 (Homo sapiens) (UniProt P35968); test: Inhibition of KDR (unknown origin) at 100 nM by ADP-Glo assay relative to control
Sequence of Vascular endothelial growth factor receptor 2 (Homo sapiens) (P35968 whole entry, the tested form may be a part): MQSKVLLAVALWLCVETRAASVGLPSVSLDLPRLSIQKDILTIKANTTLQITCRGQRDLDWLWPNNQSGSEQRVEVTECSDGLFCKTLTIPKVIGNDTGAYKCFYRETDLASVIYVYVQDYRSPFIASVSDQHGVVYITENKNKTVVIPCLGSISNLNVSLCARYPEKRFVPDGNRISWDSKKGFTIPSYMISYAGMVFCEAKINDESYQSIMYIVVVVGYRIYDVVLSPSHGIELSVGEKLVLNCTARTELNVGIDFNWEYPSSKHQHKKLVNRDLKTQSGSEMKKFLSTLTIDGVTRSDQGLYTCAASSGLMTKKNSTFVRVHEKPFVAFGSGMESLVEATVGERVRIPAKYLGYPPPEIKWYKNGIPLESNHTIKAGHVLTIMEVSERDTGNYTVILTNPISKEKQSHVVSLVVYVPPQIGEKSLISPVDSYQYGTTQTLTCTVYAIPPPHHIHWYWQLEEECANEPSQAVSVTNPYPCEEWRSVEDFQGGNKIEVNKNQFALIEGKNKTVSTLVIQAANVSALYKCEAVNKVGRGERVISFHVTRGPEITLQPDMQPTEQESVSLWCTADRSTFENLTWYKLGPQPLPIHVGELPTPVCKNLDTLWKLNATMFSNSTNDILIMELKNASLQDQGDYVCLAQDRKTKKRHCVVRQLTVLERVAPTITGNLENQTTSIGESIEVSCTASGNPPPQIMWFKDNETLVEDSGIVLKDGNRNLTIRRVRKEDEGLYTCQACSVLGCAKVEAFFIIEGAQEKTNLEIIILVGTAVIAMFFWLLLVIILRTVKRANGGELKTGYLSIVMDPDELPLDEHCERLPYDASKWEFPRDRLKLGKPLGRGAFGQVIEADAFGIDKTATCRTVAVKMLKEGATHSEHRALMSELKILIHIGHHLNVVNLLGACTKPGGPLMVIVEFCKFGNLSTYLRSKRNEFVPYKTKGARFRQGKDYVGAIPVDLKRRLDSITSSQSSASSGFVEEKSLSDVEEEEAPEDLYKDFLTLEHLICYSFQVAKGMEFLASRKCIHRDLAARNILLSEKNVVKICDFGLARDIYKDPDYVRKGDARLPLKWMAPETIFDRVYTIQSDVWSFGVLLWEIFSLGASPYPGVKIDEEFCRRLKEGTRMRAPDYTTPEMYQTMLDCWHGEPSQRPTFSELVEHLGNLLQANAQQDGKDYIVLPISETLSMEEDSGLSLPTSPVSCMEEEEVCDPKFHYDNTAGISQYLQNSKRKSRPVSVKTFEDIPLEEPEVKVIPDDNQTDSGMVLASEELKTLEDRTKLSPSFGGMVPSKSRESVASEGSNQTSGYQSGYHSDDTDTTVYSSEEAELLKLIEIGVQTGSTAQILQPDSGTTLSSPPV

[14] = target: T1, Discoidin domain-containing receptor 2; test: Inhibition of human DDR2 by discoverX kinome scan assay
[15] = target: T2, Epithelial discoidin domain-containing receptor 1; test: Inhibition of flag-tagged DDR1 (unknown origin) by TR-FRET assay
[16] = target: Vascular endothelial growth factor receptor 2 (Homo sapiens) (UniProt P35968); test: Inhibition of KDR (unknown origin) at 100 nM relative to control
[17] = target: T2, Epithelial discoidin domain-containing receptor 1; test: Inhibition of DDR1 (unknown origin) at 10 uM by DiscoverX KINOMEscan assay relative to control
[18] = Microsomal stability in rat liver microsomes assessed as intrinsic clearance; assay type: ADME, Microsome
[19] = target: T2, Epithelial discoidin domain-containing receptor 1; test: Binding affinity to DDR1 (unknown origin) assessed as dissociation constant

Structure (SMILES): Cc1ccc(C(=O)Nc2cccc(C(F)(F)F)c2)cc1NCc1cccc(C(N)=O)c1
- pIC50 [1]: 8.32

Structure (SMILES): CCN1CCN(Cc2ccc(C(=O)Nc3ccc(C)c(Oc4ccc5c(c4)CC(=O)N5)c3)cc2C(F)(F)F)CC1
- pEC50 (U2OS): 7.07

Structure (SMILES): Cc1cccc(Cl)c1NC(=O)c1cnc(Nc2cc(N3CCN(C(=O)OCCN4CCOCC4)CC3)ncn2)s1
- pIC50 [2]: 8.65
- pIC50 [3]: 8.15

Structure (SMILES): Cc1ccc(C(=O)Nc2cccc(C(F)(F)F)c2)cc1-c1ccc2nc(Nc3cnn(C)c3)ncc2c1
- pIC50 [4]: 8.66
- inhibition [5]: 97.2%
- inhibition [6]: 80.3%

Structure (SMILES): O=C(CN1CN(c2ccccc2)C2(CCN(C(=O)c3ccc4[nH]ncc4n3)CC2)C1=O)NCC(F)(F)F
- pIC50 [7]: 7.74
- pIC50 [8]: 6.07
- CLH [9]: 28 µL/min/mg
- solubility [10]: 365 µg/mL (≈ 708 µM)
- clearance [11]: 120 mL/min/kg

Structure (SMILES): O=C(CN1C(=O)C2(CCN(C(=O)c3ccc4[nH]ncc4n3)CC2)c2c(Br)cccc21)NCC(F)(F)F
- CLH [9]: 10 µL/min/mg
- clearance [11]: 103 mL/min/kg

Structure (SMILES): CC(=O)Nc1ccc(-n2nc3c(=O)[nH]nc(N)c3c2-c2oc3cc(C(=O)Nc4ccccc4C(F)(F)F)ccc3c2C)cc1
- pIC50 [12]: 7.99

Structure (SMILES): O=C(Cc1ccc(Cl)c(COc2ccccc2)c1)c1cccc(C(F)(F)F)c1
- pIC50 [12]: 7.03

Structure (SMILES): Cc1cccc(C(=O)N[C@@H](C)c2ccc(C3CC3)c(-c3ccc4nc(Nc5cnn(C6CC6)c5)ncc4c3)c2)c1
- inhibition [13]: 24.2%
- pIC50 [14]: 7.51

Structure (SMILES): O=C(Nc1cccc(C(F)(F)F)c1)c1ccc(C2CC2)c(-c2ccc3nc(Nc4cnn(C5CC5)c4)ncc3c2)c1
- pIC50 [15]: 7.76
- inhibition [5]: 18.6%
- inhibition [16]: 100%

Structure (SMILES): CCc1cccc2c(/C=C3\NC(=S)N(c4ccc(C)c(C)c4)C3=O)cn(CC(=O)NCCOC)c12
- inhibition [17]: 70.4%

Structure (SMILES): Cc1ccc2c(Nc3cccc(C(F)(F)F)c3)noc2c1C#Cc1cn2ncccc2n1
- pIC50 [7]: 8.00

Structure (SMILES): O=C(CN1CN(c2ccccc2)C2(CCN(C(=O)c3ccc4[nH]ncc4c3)CC2)C1=O)NCC(F)(F)F
- pIC50 [7]: 7.82
- pIC50 [8]: 6.09

Structure (SMILES): CNC(=O)CN1CN(c2ccccc2)C2(CCN(C(=O)c3ccc4[nH]ncc4c3)CC2)C1=O
- CLH [9]: 12 µL/min/mg
- clearance [11]: 110 mL/min/kg

Structure (SMILES): Cc1c(-c2c3c(N)n[nH]c(=O)c3nn2-c2ccc(C(N)=O)cc2)oc2cc(C(=O)Nc3ccccc3C(F)(F)F)ccc12
- pIC50 [12]: 7.97

Structure (SMILES): Cc1ccc(C(=O)Nc2cccc(C(F)(F)F)c2)cc1Nc1cncc(C(N)=O)c1
- CLint [18]: 60 µL/min/mg

Structure (SMILES): CCc1ccc(C(=O)Nc2cc(CN3CCN(C)CC3)cc(C(F)(F)F)c2)cc1-c1cccc(-c2cnc3ccnn3c2)c1
- pIC50 [12]: 8.18
- pKd [19]: 8.66
